From patent US20220009967A1, “Isolation and Semi-Synthesis of Rufomycin Analogs” (THE BOARD OF TRUSTEES OF THE UNIVERSITY OF ILLINOIS, priority 2020, published 2022)

Key:
Mycobacterial ClpC1 FL = molecular target: T1, Mycobacterial ClpC1 FL (Mycobacterium tuberculosis, UniProt P9WPC9); assay: SPR binding affinity to ClpC1 full-length protein (FL); conditions: SPR, ClpC1 full-length protein; Table 3, unit inferred; read-out: KD FL
T1 construct: N-terminal domain (NTD) and the full-length protein (FL) by surface plasmon resonance (SPR)
Protocol: (§1) Analysis of binding affinity to Mycobacterial ClpC1-NTD and FL by SPR. SPR binding assay was performed using a previously reported method (Choules et al., Antimicrob. Agents Chemother. 2019, 63, e02204-02218; Wolf et al., ACS Infect. Dis. 2019, 5, 829-840). Kinetic rate constants (ka and kd) were determined by fitting the double-reference data globally to the 1:1 Langmuir model embedded in the Biacore T200 evaluation software (v3.0). KD values were then calculated from the two rate constants (KD=kd/ka). Smaller KD values represent tighter binding affinities.

M. tuberculosis = assay: MIC against M. tuberculosis, microplate Alamar Blue assay (MABA); type: cell-based, Mycobacterium tuberculosis; set-up: MIC90: unit not given beside the values; conditions: for MIC90: MABA, Table 3, unit not given; for anti-M.tb potency relative to rifampin and isoniazid (in words): MIC data of Table 3
Protocol: MICs against M. tuberculosis. The MIC was defined as the minimum concentration of the compound required to achieve a reduction in fluorescence by 90% relative to the untreated bacterial controls. The anti-TB activity was determined by the microplate Alamar Blue assay (MABA) as previously described (Choules et al., Antimicrob. Agents Chemother. 2019, 63, e02204-02218).

Mycobacterial ClpC1-NTD = molecular target: T2, Mycobacterial ClpC1-NTD (Mycobacterium tuberculosis, UniProt P9WPC9); assay: SPR binding affinity to ClpC1-NTD; conditions: SPR, ClpC1 N-terminal domain; Table 3, unit inferred; read-out: KD NTD
T2 construct: caseinolytic protein C1 (ClpC1) N-terminal domain (NTD)
Protocol: as §1

[1] = Interconversion (epimerization) of rufomycin diastereomers, HPLC analysis; type: physicochemical; conditions: for interconversion / stability of diastereomers (in words): HPLC analysis, hemi-aminal epimers
From the text: The rufomycins 32-35 were identified as four diastereomers, arising from different orientations of the hydroxyl and methyl groups in the hydroxy-methyl piperidinone moiety. Rufomycin 32 was assigned the (AA5, 4S,5R) absolute configuration based on the ROESY correlations, and further confirmed by the cocrystal structures of rufomycin 32 and ClpC1-NTD. Thus, rufomycin 32 is that congener previously identified as ilamycin, Compound 4, and ilamycin C1 (PCT/US2000/015044). […] The assigned 4S,5S (AA5) absolute configuration for rufomycin 33 was validated by the ROESY correlations. Rufomycin 34 with the absolute configuration 4R,5R (AA5) was established by the ROESY cross-peaks. […] After being purified by semi-prep HPLC, rufomycin 35 was concentrated under a stream of forced air and freeze drying to reduce interconversion.

[2] = molecular target: caseinolytic protein C1 (ClpC1) N-terminal domain (NTD) (Mycobacterial (Mycobacterium tuberculosis by context)) (UniProt P9WPC9); assay: SPR (Biacore T200), 1:1 Langmuir fit, KD=kd/ka
[3] = molecular target: caseinolytic protein C1 (ClpC1) full-length protein (FL) (Mycobacterial (Mycobacterium tuberculosis by context)) (UniProt P9WPC9); assay: SPR (Biacore T200), 1:1 Langmuir fit, KD=kd/ka
Sequence of caseinolytic protein C1 (ClpC1) full-length protein (FL) (Mycobacterial (Mycobacterium tuberculosis by context)) (P9WPC9 whole entry): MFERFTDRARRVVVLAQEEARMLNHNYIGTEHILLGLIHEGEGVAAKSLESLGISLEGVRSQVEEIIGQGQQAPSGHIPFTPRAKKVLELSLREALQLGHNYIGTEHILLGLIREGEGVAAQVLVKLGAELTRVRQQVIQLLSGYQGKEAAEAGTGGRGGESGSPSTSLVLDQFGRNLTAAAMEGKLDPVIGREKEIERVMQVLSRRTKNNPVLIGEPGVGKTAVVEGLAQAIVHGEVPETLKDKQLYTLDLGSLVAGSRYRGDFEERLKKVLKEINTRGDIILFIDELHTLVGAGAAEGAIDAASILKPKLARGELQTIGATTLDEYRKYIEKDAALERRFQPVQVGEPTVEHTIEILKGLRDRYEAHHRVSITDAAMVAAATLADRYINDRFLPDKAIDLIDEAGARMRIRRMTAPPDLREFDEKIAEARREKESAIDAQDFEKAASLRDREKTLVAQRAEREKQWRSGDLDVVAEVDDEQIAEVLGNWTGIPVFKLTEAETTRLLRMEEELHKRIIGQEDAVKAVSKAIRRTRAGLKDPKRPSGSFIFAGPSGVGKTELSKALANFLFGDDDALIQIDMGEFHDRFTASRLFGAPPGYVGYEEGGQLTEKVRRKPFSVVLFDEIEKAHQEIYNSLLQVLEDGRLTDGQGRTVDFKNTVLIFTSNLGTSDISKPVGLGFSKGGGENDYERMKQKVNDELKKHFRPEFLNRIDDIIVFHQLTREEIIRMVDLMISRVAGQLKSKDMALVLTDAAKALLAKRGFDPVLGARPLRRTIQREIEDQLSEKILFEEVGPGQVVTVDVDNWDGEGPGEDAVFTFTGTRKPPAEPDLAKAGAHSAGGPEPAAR

T1 sequence (P9WPC9 whole entry, the tested form may be a part): as the sequence (P9WPC9 whole entry) above
T2 sequence (P9WPC9 2-144): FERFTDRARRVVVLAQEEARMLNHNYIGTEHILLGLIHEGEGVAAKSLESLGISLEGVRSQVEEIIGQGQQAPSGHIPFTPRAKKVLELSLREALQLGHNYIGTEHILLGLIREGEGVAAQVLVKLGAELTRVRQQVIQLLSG
Sequence of caseinolytic protein C1 (ClpC1) N-terminal domain (NTD) (Mycobacterial (Mycobacterium tuberculosis by context)) (P9WPC9 1-145 limits assumed): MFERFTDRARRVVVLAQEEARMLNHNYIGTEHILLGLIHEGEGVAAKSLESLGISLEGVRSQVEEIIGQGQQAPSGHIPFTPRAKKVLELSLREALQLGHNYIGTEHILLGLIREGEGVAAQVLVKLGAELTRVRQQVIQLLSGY

C/C=C/C[C@@H]1NC(=O)[C@H](CC(C)C)N2C(=O)[C@H](C[C@H](C)[C@H]2O)N(C)C(=O)[C@H](C)NC(=O)[C@H](Cc2ccc(O)c([N+](=O)[O-])c2)NC(=O)[C@H](CC(C)C)N(C)C(=O)[C@H](Cc2cn(C(C)(C)[C@H]3CO3)c3ccccc23)NC1=O [rufomycin 32]
Kd (Mycobacterial ClpC1 FL): 31 nM | MIC90 (M. tuberculosis): 21 | anti-M.tb potency relative to rifampin and isoniazid (in words) (M. tuberculosis): higher potency than drugs rifampin and isoniazid | Kd (Mycobacterial ClpC1-NTD): 32 nM | interconversion / stability of diastereomers (in words) [1]: interconvertible

C/C=C/C[C@@H]1NC(=O)[C@H](CC(C)C)N2C(=O)[C@H](C[C@H](C)[C@@H]2O)N(C)C(=O)[C@H](C)NC(=O)[C@H](Cc2ccc(O)c([N+](=O)[O-])c2)NC(=O)[C@H](CC(C)C)N(C)C(=O)[C@H](Cc2cn(C(C)(C)[C@H]3CO3)c3ccccc23)NC1=O [rufomycin 33]
Kd (Mycobacterial ClpC1 FL): 27 nM | MIC90 (M. tuberculosis): 12 | anti-M.tb potency relative to rifampin and isoniazid (in words) (M. tuberculosis): higher potency than drugs rifampin and isoniazid | Kd (Mycobacterial ClpC1-NTD): 29 nM | interconversion / stability of diastereomers (in words) [1]: interconvertible

C/C=C/C[C@@H]1NC(=O)[C@H](CC(C)C)N2C(=O)[C@H](C[C@@H](C)[C@H]2O)N(C)C(=O)[C@H](C)NC(=O)[C@H](Cc2ccc(O)c([N+](=O)[O-])c2)NC(=O)[C@H](CC(C)C)N(C)C(=O)[C@H](Cc2cn(C(C)(C)[C@H]3CO3)c3ccccc23)NC1=O [rufomycin 34]
Kd (Mycobacterial ClpC1 FL): 178 nM | MIC90 (M. tuberculosis): 46 | Kd (Mycobacterial ClpC1-NTD): 183 nM | conversion to rufomycin 35 ([1]; under aqueous conditions, slowly): ~5%

C/C=C/C[C@@H]1NC(=O)[C@H](CC(C)C)N2C(=O)[C@H](C[C@@H](C)[C@@H]2O)N(C)C(=O)[C@H](C)NC(=O)[C@H](Cc2ccc(O)c([N+](=O)[O-])c2)NC(=O)[C@H](CC(C)C)N(C)C(=O)[C@H](Cc2cn(C(C)(C)[C@H]3CO3)c3ccccc23)NC1=O [rufomycin 35]
Kd (Mycobacterial ClpC1 FL): 209 nM | MIC90 (M. tuberculosis): 47 | Kd (Mycobacterial ClpC1-NTD): 186 nM | interconversion / stability of diastereomers (in words) [1]: the most unstable diastereomer | epimerization to rufomycin 34 ([1]; during concentration, quickly): ~50%

rufomycins 1 and 2 mixture (peptide)
Kd [2]: 70 nM | Kd [3]: 70 nM
